Measurements from EP2207528B1, “PHARMACEUTICAL COMPOSITION” (STI Pharmaceuticals Ltd., priority 2007, dated 2009).
In brackets after ≈: the same amount, converted by molar mass. Where two headings read alike, the source gives them in different places.

Columns and labels:
[1] = Open study, THC-CBD inhaled (pMDI) vs intravenous, plasma pharmacokinetics by GC/MS; type: in vivo, healthy volunteers; conditions: for time measurable in plasma after administration: 360 mcg i.h. and i.v. doses; for half-life: human, plasma, 720 ug, read-out: elimination half-lives; for half-life / mean i.h. bioavailability (calculated vs. i.v.) / time of plasma peak post-drug: 720 mcg
Description: In an open study on 12 healthy volunteers a combination of THC and cannabidiol (CBD) was compared after inhalation (i.h.) and intravenously (i.v.) (see Rudolf Brenneisen, Pascale Meyer, Manuela Langos, Christian Steup and Andrew Davies, IACM Congress 2007, 05.10.2007 Cologne).
The liquid aerosol was produced by an in-vitro validated pMDI device, releasing about 45% of the cannabinoid dose, enabling a dosage of about 90 mcg THC and 90 mcg CBD per actuation. The actuator was used from Bespak with an orifice diameter of 0.22mm.
Three subjects (pilot study) received 360 and 9 subjects 720 mcg THC-CBD, corresponding to 4 and 8 actuations, respectively. The addition of a Lidocain HCL to the pulmonal preparation was expected to prevent mucosa irritation and coughing. The pharmacokinetic evaluation was based on plasma profiles aquired by GC/MS. Adverse effects were monitored by visual analog scales (VAS) and measuring vital functions.

[2] = Solubility of local anaesthetic in ethanol and HFA 227
[3] = oral; cited from earlier work
[4] = after inhalation of a THC aerosol, Pari Master; cited from earlier work

| Structure (SMILES) | time measurable in plasma after administration [1] [min] | half-life ([1]; inhaled, i.h.) [min] | half-life ([1]; iv, i.v.) [min] | mean i.h. bioavailability (calculated vs. i.v.) ([1]; i.h.) [%] | time of plasma peak post-drug ([1]; i.h.) [min] | time of plasma peak post-drug ([1]; i.v.) [min] | solubility ([2]; ethanol, organic solvent or mixture) [mg/mL] | solubility ([2]; hfa 227, organic solvent or mixture) [mg/mL] | Limit of solubility in Ethanol ([2]; in Ethanol) [mg/mL] | Limit of solubility in HFA 227 ([2]; in HFA 227) [mg/mL] | bioavailability [3] | main metabolite ([1]; after i.h.) | THC metabolism ([1]; after i.h., compared with oral (p.o.) administration) | bioavailability [4] [%] |
| --- | --- | --- | --- | --- | --- | --- | --- | --- | --- | --- | --- | --- | --- | --- |
| C=C(C)[C@@H]1CCC(C)=C[C@H]1c1c(O)cc(CCCCC)cc1O [CBD, Cannabidiol] | ≤ 20 | 11 | 24 | 59 ± 47 | 5 | 5 | – | – | – | – | – | – | – | – |
| CCCCNc1ccc(C(=O)OCCN(C)C)cc1 [Tetracain, Tetracaine Base] | – | – | – | – | – | – | 450 (≈ 1700 mM) | 40 (≈ 151 mM) | 450 | 40 | – | – | – | – |
| CCCCCc1cc(O)c2c(c1)OC(C)(C)[C@@H]1CCC(C)=C[C@@H]21 [THC, delta-9-Tetrahydrocannabinol] | ≤ 20 | 7 | 22 | 55 ± 37 | 5 | 5 | – | – | – | – | 5-20% | Conjugated 11-carboxy-THC | less pronounced than after oral | 29 |
